We go through 1 molecule from patent US5545639A, “Method of inhibiting transformed cells” (The United States of America as represented by the …, priority 1994, dated 1996).

The structures appear in SMILES notation.

In one data set the test system is DMS 273. Nature of the data set: Dose response of growth, tumor cell line. It is filed as cell-based. The note with it: Homo sapiens, DMS 273, small cell lung cancer.
The conditions of data set [1]: mouse.
A further data set concerns human tumor cell lines. Nature of the data set: Example 5: dose response of growth of human tumor cell lines, overall panel. It is filed as cell-based. Here is the method:
(§1) Indeed, 70% of the cell lines were shown not only to experience precluded growth, but cell death, when exposed to less then 100 μM of the active ingredient.

The subject of a further data set is SNB-75. Nature of the data set: Dose response of growth, tumor cell line. It is filed as cell-based. The conditions noted are these: Homo sapiens, SNB-75, CNS cancer. How it is done: as §1
Another data set has as its system MOLT-4. Nature of the data set: Dose response of growth, tumor cell line. It is filed as cell-based. The note with it: Homo sapiens, MOLT-4, leukemia. Here is the method: as §1
The test system of another data set is UACC-257. As to the kind of experiment: Dose response of growth, tumor cell line. It is filed as cell-based. The conditions noted are these: Homo sapiens, UACC-257, melanoma. Here is the method:
as §1

Setting [2] is: read-out: 50% Growth (Relative to Control).
[3] abbreviates: read-out: No Growth (Relative to Control).

In the case of `ClCc1ccc2ccc3ccc(CCl)nc3c2n1` [2,9-bis(chloromethyl)-1,10-phenanthroline], the IC50 in the data set with DMS 273 (setting [2]) is 2.84 µM; in the data set on SNB-75 (setting [2]), 1.72 µM; in the data set with MOLT-4 (setting [2]) it was 1.73 µM; with UACC-257 (setting [2]), 0.78 µM. Moreover, the IC100 is more than 100 µM in the data set with DMS 273 (setting [3]), 4.53 µM in the data set on SNB-75 (setting [3]), 4.02 µM in the data set on MOLT-4 (setting [3]) and 2.03 µM in the data set with UACC-257 (setting [3]). In data set [1], the “tolerated in vivo concentration relative to 100 μM in vitro” value is “at least 8.5 times”. Besides, in data set [1] (in vivo, 250 mg/kg), the “toxicity in an animal” value is recorded as “not toxic”. The “tolerability in mammals compared with the brominated derivative” value in data set [1] (in vivo, ip) is reported as “better tolerated”. The IC (total growth inhibition) with human tumor cell lines (Homo sapiens, average, majority of cell lines, read-out: average concentration to preclude growth of the transformed cells in vitro, majority of cell lines) was approximately 5.66 µM. Besides, the “cessation of growth of transformed cells” value in the data set on human tumor cell lines (human tumor cell lines) is reported as “nearly all transformed cells cease growth in the presence of micromolar concentrations”. The CC50 stood at 15.5 µM with SNB-75 (read-out: 50% Loss (50% kill)), 9.34 µM in the data set on MOLT-4 (read-out: 50% Loss (50% kill)) and 5.58 µM with UACC-257 (read-out: 50% Loss (50% kill)).
